Molecules are shown by their SMILES.

The nature of the test: Inhibition of RNA-dependent RNA polymerase in ZIKV SL0612 infected in African green monkey Vero cells assessed as reduction in virus-induced cytopathic effect measured after 96 hrs post-infection by MTS assay. A general note: Protection from cytopathic effect is a common read-out in antiviral testing.
The EC50 is the concentration at which the effect is half-maximal. As to `O=c1ccn([C@H]2[C@H](O)[C@H](O)[C@@H](CO)[C@@H]2F)c(=O)[nH]1`, the EC50 was greater than 100 µM.

As for `O=c1ccn([C@H]2[C@H](O)[C@H](O)[C@@H](CO)[C@H]2F)c(=O)[nH]1`, the concentration giving a half-maximal response (EC50) was greater than 100 µM. In the case of `Nc1ncnc2c1ncn2[C@H]1[C@H](O)[C@H](O)[C@@H](CO)C1(F)F`, the EC50 was found to be 0.26 µM. With `CNc1ncnc2c1ncn2[C@H]1[C@H](O)[C@H](O)[C@@H](CO)C1(F)F`, the concentration giving a half-maximal response (EC50) was greater than 100 µM. For `O=c1ccn([C@H]2[C@H](O)[C@H](O)[C@@H](CO)C2(F)F)c(=O)[nH]1`, the EC50 was greater than 100 µM. To `CC(C)OC(=O)[C@H](C)N[P@](=O)(OC[C@@H]1[C@@H](O)[C@@H](O)[C@H](n2cnc3c(N)ncnc32)C1(F)F)Oc1ccccc1` belongs 1.75 µM; to `CC(C)OC(=O)[C@H](C)N[P@](=O)(OC[C@@H]1[C@@H](O)[C@@H](O)[C@H](n2ccc(=O)[nH]c2=O)[C@@H]1F)Oc1ccccc1`, greater than 100 µM; to `Nc1ccn([C@H]2[C@H](O)[C@H](O)[C@@H](CO)C2(F)F)c(=O)n1`, greater than 100 µM. Consider `CC(C)OC(=O)[C@H](C)N[P@](=O)(OC[C@@H]1[C@@H](O)[C@@H](O)[C@H](n2ccc(=O)[nH]c2=O)C1(F)F)Oc1ccccc1`, for which the EC50 was greater than 100 µM. Turning to `CNc1ncnc2c1ncn2[C@H]1[C@H](O)[C@H](O)[C@@H](CO)[C@H]1F`, the EC50 was greater than 100 µM.

Turning to `Nc1ccn([C@H]2[C@H](O)[C@H](O)[C@@H](CO)[C@H]2F)c(=O)n1`, the EC50 is greater than 100 µM. To `Nc1ncnc2c1ncn2[C@@H]1C[C@H](CO)[C@@H](O)[C@H]1O` [3-(6-Amino-purin-9-yl)-5-hydroxymethyl-cyclopentane-1,2-diol] belongs 0.64 µM.

The record behind these values is BindingDB's records for doi:10.1021/acs.jmedchem.9b00781 (Seoul National University, 2019).
